Data from patent US20220298143A1, “Pyrazole Derivatives for FGFR Inhibitor and Preparation Method Thereof” (Etern Biopharma (Shanghai) Co., Ltd., priority 2019, published 2022).

Tests used:
[1] = biological target: T1, FGFR1 (456-763) kinase domain protein (Homo sapiens, UniProt P11362); assay: Confirmation of covalent bond formation between inhibitor and FGFR by mass spectrometry; format: binding
T1 construct: The purified FGFR1 (456-763) kinase domain protein
Method: Confirmation of the Formation of Covalent Bonds Between FGFR Irreversible Inhibitors and FGFR by Mass Spectrometry
For example, compound 1 was incubated with FGFR1, the molecular weight of the protein-compound complex was detected by mass spectrometry.
Operation steps: The purified FGFR1 (456-763) kinase domain protein was diluted with a protein buffer (20 mM Tris-HCL pH8.0, 150 mM Nacl) to a final concentration of about 20 μM (800 ng/μl). A 100 ul incubation system was used, wherein compound 1 with a final concentration of 100 μM was added to the experimental group with a molar ratio of the protein to compound of 1:5 and DMSO was added to the control group. The amount of DMSO was controlled in the two groups to be 1% by volume of the system. The experimental group and the control group were incubated on ice at the same time for 2 hours, and then diluted with 4 times volume of acetone at −20 overnight. After centrifugation at 16000×g for 10 minutes, the deposit was resuspended in 0.1% formic acid and loaded for mass spectrometry data collection.

FGFR2 = FGFR2 (Homo sapiens, UniProt P21802); assay: Enzymatic activity test of FGFR inhibitor, Caliper model; format: biochemical; settings: kinase pre-incubation 10 minutes
Method: (§1) Enzymatic Activity Test of FGFR Inhibitor-Caliper Model
(§2) The specific operation steps were as follows:
(§3) The compound was first serially diluted in 5% DMSO solution, and 5 μL of the compound solution was added to a 384-well plate. The maximum final concentration of the compound is 1 μM, being diluted three times with 10 concentrations.
(§4) 10 μL of kinase solution was added to the 384-well plate and incubated at room temperature for 10 minutes;
(§5) 10 μL of P22 peptide and ATP solution were added to the 384-well plate, and 25 μL of reaction stop buffer was added after a specific time at 28° C.;
(§6) The data was collected in Caliper read and the inhibition rate was calculated according to inhibition rate=(max−conversion)/(max−min)*100, where max is DMSO control, conversion is the reading of the compound treated group, and min is the maximum inhibition control. IC50 value of the compound was calculated with XLfit excel add-in version 5.4.0.8 software.

[2] = system: Human liver cancer Hep3B cells; assay: Hep3B transplanted tumor model; format: in vivo, Balb/c nude mice; settings: 21 days
Method: Hep3B Transplanted Tumor Model
Cell culture: Human liver cancer Hep3B cells were cultured in a monolayer in vitro. The culture conditions were 1640 medium with 10% fetal bovine serum, 100 U/mL penicillin and 100 μg/mL streptomycin, incubated at 37° C. in 5% CO2 incubator. Routine digestive passage was performed by pancreatin-EDTA twice a week. When the cell saturation was 80%-90% and the number reached the requirement, the cells were collected, counted, and inoculated.
Animals: Balb/c nude mice, female, 6-8 weeks old, weighing 18-22 grams, provided by Shanghai Slack Laboratory Animal Co., Ltd. or other qualified suppliers.
Tumor inoculation: 0.2 mL (10×106+Matrixgel) Hep3B cells were subcutaneously inoculated on the right back of each mouse, and group administration was started when the average tumor volume reached about 140-200 mm^3.
Administration: compound prescription (0.5% MC+0.5% Tween 80) was made with administration dose of 0.3 mg/Kg, 1 mg/Kg, 2 mg/Kg, 3 mg/Kg, intragastric administration twice a day continuously for 21 days.
Experimental indicators: to investigate whether tumor growth was inhibited, delayed or cured, the tumor diameter was measured with a vernier caliper three times a week. The calculation formula for tumor volume is: V=0.5a×b2, where a and b represent the long diameter and short diameter of the tumor, respectively. The anti-tumor efficacy of the compound was evaluated by TGI (%). TGI (%) reflected the tumor growth inhibition rate.

Hep3B cells = assay: Human liver cancer cell Hep3B survival test (CellTiter-Glo); format: cell-based; settings: 72 hours compound treatment
Method: Human Liver Cancer Cell Hep3B Survival Test
The human liver cancer Hep3B cell line was from ATCC. The cells were cultured in DMEM liquid medium, and fetal bovine serum (10% FBS) and penicillin-streptomycin (100,000 U/L) were added. The cells were kept at 37° C., 95% humidity and 5% carbon dioxide in the culture medium. During the experiment, Hep3B cells were seeded in a 96-well plate at a density of 3000 cells per well. The volume of the cell suspension was 100 μL per well, and the cells were cultured overnight to attach the cells. The next day, each compound was diluted with DMSO in a three-fold gradient, and 1 μL of the solution of the compound in DMSO was added to the cell culture medium. At the same time, 1 μL of DMSO was used as a control. Three parallel sub-wells were set for each concentration of each compound. Then the cells were placed in a 37° C. incubator. After 72 hours of continuous compound treatment, 50 μL CellTiter-Glo (Promega, Madison Wis.) was added to the cell culture medium. The relative luminescence unit (RLU) of each well was determined and the cell survival rate and compound activity (IC50) were calculated.

FGFR3 = FGFR3 (Homo sapiens, UniProt P22607); assay: Enzymatic activity test of FGFR inhibitor, Caliper model; format: biochemical; settings: kinase pre-incubation 10 minutes
[3] = Compound pharmacokinetic experiment, single intragastric administration; format: in vivo; settings: mouse, plasma, male mice, oral dosage 15 mg/Kg
Method: Compound Pharmacokinetic Experiment
The pharmacokinetics of the compounds of the present disclosure was determined. This application used the following methods to determine the pharmacokinetic parameters of the compounds.
For the healthy male adult mice used in the study, each group of animals was given a single intragastric administration of 5-100 mg/Kg. Fasting was from 10 hours before administration to 4 hours after administration. Blood was collected at different time points after administration, and the plasma content of the compound was determined (LC-MS/MS). The plasma concentration-time relationship was analyzed with professional software (winnonlin) to calculate the pharmacokinetic parameters of the compound.

FGFR4 = biological target: T2, FGFR4 (Homo sapiens, UniProt P22455); assay: Enzymatic activity test of FGFR inhibitor, Caliper model; format: biochemical; settings: Caliper, kinase pre-incubation 10 minutes; read-out: FGFR4
T2 construct: purchased Invitrogen PR4380A
Method: as §1, §2, §3, §4, §5, §6

FGFR1 = biological target: T3, FGFR1 (Homo sapiens, UniProt P11362); assay: as above; format: biochemical; settings: Caliper, kinase pre-incubation 10 minutes; read-out: FGFR1
T3 construct: purchased Cama (sic; Carna) 08-133
Method: as §1, §2, §3, §4, §5, §6

[4] = 100 μM compound, about 20 μM protein, 2 hours on ice

T1 sequence (P11362 456-763): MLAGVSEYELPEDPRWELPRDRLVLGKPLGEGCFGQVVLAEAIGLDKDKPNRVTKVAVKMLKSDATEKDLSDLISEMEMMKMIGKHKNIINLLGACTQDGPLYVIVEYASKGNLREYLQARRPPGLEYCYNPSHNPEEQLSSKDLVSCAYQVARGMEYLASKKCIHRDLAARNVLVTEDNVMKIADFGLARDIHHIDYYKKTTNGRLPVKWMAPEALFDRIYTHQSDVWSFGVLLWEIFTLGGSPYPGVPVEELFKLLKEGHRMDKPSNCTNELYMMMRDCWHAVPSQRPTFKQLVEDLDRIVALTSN
T2 sequence (P22455 22-802): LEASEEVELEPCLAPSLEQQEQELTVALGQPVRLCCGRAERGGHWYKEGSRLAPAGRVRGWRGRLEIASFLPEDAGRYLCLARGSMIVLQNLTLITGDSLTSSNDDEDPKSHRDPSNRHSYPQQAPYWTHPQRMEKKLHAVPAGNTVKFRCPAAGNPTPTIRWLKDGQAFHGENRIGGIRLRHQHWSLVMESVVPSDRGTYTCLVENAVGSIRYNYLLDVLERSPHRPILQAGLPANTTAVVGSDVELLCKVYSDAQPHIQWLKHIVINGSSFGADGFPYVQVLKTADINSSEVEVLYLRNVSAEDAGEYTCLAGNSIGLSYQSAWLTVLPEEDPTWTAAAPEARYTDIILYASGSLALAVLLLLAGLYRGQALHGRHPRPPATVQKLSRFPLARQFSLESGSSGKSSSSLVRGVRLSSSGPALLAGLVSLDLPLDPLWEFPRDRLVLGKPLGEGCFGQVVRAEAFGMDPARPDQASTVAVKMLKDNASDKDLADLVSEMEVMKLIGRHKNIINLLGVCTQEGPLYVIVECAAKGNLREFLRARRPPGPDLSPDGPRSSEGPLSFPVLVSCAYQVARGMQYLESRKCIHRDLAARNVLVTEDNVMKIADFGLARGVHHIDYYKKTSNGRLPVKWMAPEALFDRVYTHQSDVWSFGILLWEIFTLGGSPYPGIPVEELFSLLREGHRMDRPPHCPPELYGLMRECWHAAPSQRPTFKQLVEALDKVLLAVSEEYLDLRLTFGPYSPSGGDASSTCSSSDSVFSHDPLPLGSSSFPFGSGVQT
Chain of FGFR2 (P21802 22-821): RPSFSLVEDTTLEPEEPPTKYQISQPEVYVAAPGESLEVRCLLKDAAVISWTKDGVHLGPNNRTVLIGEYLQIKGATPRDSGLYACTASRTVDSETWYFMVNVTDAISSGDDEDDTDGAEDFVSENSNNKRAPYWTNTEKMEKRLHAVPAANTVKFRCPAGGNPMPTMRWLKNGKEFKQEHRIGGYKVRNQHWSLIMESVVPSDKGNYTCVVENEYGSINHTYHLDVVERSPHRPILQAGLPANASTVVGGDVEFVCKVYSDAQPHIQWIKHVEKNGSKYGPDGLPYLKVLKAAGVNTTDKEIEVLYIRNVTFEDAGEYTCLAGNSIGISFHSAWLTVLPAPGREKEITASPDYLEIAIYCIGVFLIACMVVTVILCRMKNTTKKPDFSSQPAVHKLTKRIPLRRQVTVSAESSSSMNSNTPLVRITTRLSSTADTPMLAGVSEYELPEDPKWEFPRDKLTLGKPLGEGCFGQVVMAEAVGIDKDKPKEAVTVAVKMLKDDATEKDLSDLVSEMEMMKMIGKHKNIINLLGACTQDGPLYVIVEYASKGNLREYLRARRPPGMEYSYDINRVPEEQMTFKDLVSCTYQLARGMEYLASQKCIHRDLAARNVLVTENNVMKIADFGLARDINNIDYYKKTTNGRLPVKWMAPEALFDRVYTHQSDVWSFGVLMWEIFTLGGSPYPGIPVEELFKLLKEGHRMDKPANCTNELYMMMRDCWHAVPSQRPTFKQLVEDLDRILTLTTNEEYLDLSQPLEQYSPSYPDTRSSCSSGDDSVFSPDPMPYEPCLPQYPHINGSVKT
Chain of FGFR3 (P22607 23-806): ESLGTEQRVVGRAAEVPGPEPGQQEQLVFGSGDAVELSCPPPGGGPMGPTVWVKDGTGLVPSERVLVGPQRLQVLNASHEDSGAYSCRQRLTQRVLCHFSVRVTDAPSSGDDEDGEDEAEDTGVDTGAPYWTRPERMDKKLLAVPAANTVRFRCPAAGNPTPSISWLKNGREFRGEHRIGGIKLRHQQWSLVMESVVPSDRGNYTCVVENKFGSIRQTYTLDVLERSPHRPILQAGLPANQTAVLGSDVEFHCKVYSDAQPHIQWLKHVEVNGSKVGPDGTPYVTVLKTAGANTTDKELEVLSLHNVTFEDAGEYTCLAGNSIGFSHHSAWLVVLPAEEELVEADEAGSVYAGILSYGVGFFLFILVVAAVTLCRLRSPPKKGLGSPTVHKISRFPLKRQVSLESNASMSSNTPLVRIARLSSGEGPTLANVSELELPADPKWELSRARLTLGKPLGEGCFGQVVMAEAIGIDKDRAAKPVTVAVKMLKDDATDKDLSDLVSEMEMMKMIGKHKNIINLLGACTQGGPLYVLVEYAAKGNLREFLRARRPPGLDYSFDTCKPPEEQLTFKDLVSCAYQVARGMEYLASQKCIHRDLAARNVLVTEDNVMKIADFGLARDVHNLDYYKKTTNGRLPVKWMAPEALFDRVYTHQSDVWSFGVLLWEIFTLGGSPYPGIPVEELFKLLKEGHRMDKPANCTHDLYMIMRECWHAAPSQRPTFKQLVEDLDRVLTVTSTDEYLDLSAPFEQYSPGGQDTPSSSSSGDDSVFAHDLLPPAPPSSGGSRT
T3 sequence (P11362 22-822): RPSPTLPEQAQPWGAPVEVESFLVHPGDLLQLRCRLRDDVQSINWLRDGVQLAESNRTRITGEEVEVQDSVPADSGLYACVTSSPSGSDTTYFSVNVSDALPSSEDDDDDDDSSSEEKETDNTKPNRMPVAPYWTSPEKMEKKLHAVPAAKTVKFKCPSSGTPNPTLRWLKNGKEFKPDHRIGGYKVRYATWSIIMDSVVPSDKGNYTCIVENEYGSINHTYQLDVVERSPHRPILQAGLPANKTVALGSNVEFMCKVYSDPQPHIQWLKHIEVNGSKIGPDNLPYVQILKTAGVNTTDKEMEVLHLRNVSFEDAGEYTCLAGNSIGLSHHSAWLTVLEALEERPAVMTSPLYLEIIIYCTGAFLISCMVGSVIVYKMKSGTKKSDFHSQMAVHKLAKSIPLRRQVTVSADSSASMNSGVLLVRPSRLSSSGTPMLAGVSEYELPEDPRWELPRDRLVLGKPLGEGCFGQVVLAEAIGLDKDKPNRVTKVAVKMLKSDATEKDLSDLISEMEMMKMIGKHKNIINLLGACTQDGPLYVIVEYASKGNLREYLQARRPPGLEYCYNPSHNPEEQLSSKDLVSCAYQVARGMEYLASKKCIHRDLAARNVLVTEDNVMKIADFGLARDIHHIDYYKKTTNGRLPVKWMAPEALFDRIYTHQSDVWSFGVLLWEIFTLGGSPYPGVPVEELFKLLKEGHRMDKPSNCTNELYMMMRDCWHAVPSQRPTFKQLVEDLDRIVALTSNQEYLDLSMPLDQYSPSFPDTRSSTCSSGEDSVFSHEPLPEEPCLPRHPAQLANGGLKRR

- average molecular weight of protein-compound complex [1, 4]: 36345.5 Da
- Δmolecular weight (complex versus DMSO + FGFR1) [1, 4]: 598
- formation of covalent bond with FGFR1 protein ([1]; mass spectrometry): formed an irreversible covalent bond
- IC50 (FGFR2): 1.8 nM
- IC50 (FGFR3): 3.3 nM
- Cmax ([3]; read-out: Peak plasma concentration Cmax): 1220 nM
- AUC ([3]; read-out: Plasma exposure AUC): 2.27 µM·h
- IC50 (FGFR4): 1.2 nM
- IC50 (FGFR1): 1.9 nM
Structure (SMILES): C=CC(=O)Nc1cc(N2CCN(CCC(F)(F)F)CC2)ccc1C(=O)Nc1cc(CCc2cc(OC)cc(OC)c2)n[nH]1 [Compound 1, 2-acrylamide-N-(3-(3,5-dimethoxyphenethyl)-1H-pyrazol-5-yl)-4-(4-(3,3,3-trifluoropropyl)piperazin-1-yl) benzamide]
- TGI % ([2]; 0.3 mpk oral twice a day): 17%
- TGI % ([2]; 1 mpk oral twice a day): 50%
- TGI % ([2]; 2 mpk oral twice a day): 100%
- TGI % ([2]; 3 mpk oral twice a day): 108%
- IC50 (Hep3B cells): 1.4 nM
